Results from PubChem BioAssay (NCI).
Values joined by “and” are separate entries in the source; they are usually repeats but may differ in a detail not shown here. Equal entries are not always repeated.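 GI50: concentration for 50% inhibition of growth. The concentration for full growth arrest is given as TGI.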

How the values were obtained:
Assay in all cases: inhibition of tumour cell growth, NCI panel, 384-well format
COLO 205 colon = system: COLO 205 colon
NCI-H23 lung = system: NCI-H23 lung
TK-10 renal = system: TK-10 renal
HCT-116 colon = system: HCT-116 colon
CCRF-CEM leukemia = system: CCRF-CEM leukemia
HS 578T breast = system: HS 578T breast
SK-MEL-2 melanoma = system: SK-MEL-2 melanoma
PC-3 prostate = system: PC-3 prostate
K-562 leukemia = system: K-562 leukemia
OVCAR-4 ovarian = system: OVCAR-4 ovarian
RPMI-8226 leukemia = system: RPMI-8226 leukemia
SNB-19 CNS = system: SNB-19 CNS
SK-MEL-28 melanoma = system: SK-MEL-28 melanoma
SR leukemia = system: SR leukemia
UO-31 renal = system: UO-31 renal
SF-295 CNS = system: SF-295 CNS
SK-MEL-5 melanoma = system: SK-MEL-5 melanoma
DU-145 prostate = system: DU-145 prostate
MDA-MB-435 melanoma = system: MDA-MB-435 melanoma
SF-268 CNS = system: SF-268 CNS
LOX IMVI melanoma = system: LOX IMVI melanoma
KM12 colon = system: KM12 colon
HL-60(TB) leukemia = system: HL-60(TB) leukemia
HOP-62 NSCLC = system: HOP-62 NSCLC
UACC-62 melanoma = system: UACC-62 melanoma
SF-539 CNS = system: SF-539 CNS
RXF 393 renal = system: RXF 393 renal
A498 renal = system: A498 renal
OVCAR-3 ovarian = system: OVCAR-3 ovarian
CAKI-1 renal = system: CAKI-1 renal

With `COc1cccc2c1C(=O)c1c(O)c3c(c(O)c1C2=O)C[C@@](O)(C(=O)CO)C[C@@H]3OC1CC(N)C(O)C(C)O1` (stereo partly drawn) the TGI (COLO 205 colon) was 328 nM and 179 nM, the GI50 (NCI-H23 lung) was 43 nM and 27.4 nM and 28.5 nM and the TGI (NCI-H23 lung) was 126 nM and 89 nM and 133 nM. For the same compound, the GI50 (TK-10 renal) was 78 nM and 88.7 nM, the TGI (TK-10 renal) was 461 nM and 328 nM and the GI50 (HCT-116 colon) was 29.4 nM and 16.5 nM. The TGI (HCT-116 colon) was 972 nM and 151 nM, the GI50 (CCRF-CEM leukemia) was 8.6 nM and < 11.2 nM and < 10 nM and the TGI (CCRF-CEM leukemia) was 27.4 nM and 19.4 nM and 17.7 nM. For the same compound, the GI50 (HS 578T breast) was 16.7 nM and 26.9 nM and 109 nM, the TGI (HS 578T breast) was 133 nM and 141 nM and 322 nM and the GI50 (SK-MEL-2 melanoma) was 56.5 nM and 86 nM and 68.1 nM. The TGI (SK-MEL-2 melanoma) was 128 nM and 179 nM and 130 nM, the GI50 (PC-3 prostate) was 189 nM and 154 nM and 139 nM and the TGI (PC-3 prostate) was 765 nM and 626 nM and 467 nM. The GI50 (K-562 leukemia) was 39.7 nM and 43.9 nM and 45.6 nM, the TGI (K-562 leukemia) was 340 nM and 245 nM and 229 nM and the GI50 (OVCAR-4 ovarian) was 310 nM and 246 nM and 263 nM. The TGI (OVCAR-4 ovarian) was 983 nM and 954 nM and 1910 nM, the GI50 (RPMI-8226 leukemia) was 7.64 nM and 11.2 nM and < 10 nM and the TGI (RPMI-8226 leukemia) was 40.3 nM and 24.6 nM and 21.9 nM. The GI50 (SNB-19 CNS) was 36.2 nM and 32.2 nM and 34.3 nM, the GI50 (SK-MEL-28 melanoma) was 84.4 nM and 72.7 nM and 101 nM and the TGI (SK-MEL-28 melanoma) was 336 nM and 208 nM and 237 nM. For the same compound, the GI50 (SR leukemia) was 4 nM, the TGI (SR leukemia) was 7.78 nM and the GI50 (UO-31 renal) was 360 nM and 508 nM and 907 nM. The TGI (UO-31 renal) was 1630 nM and 1530 nM and 2280 nM, the GI50 (SF-295 CNS) was 49.2 nM and 32.3 nM and 52.2 nM and the TGI (SF-295 CNS) was 169 nM and 135 nM and 447 nM. For the same compound, the GI50 (SK-MEL-5 melanoma) was 41.1 nM and 13.1 nM, the TGI (SK-MEL-5 melanoma) was 166 nM and 58.6 nM and the GI50 (DU-145 prostate) was 33.7 nM and 18.5 nM. For the same compound, the TGI (DU-145 prostate) was 148 nM and 214 nM, the GI50 (MDA-MB-435 melanoma) was 219 nM and 232 nM and 150 nM and the TGI (MDA-MB-435 melanoma) was 632 nM and 669 nM and 599 nM. The GI50 (SF-268 CNS) was 35.2 nM and 32.6 nM and 36.3 nM, the TGI (SF-268 CNS) was 207 nM and 138 nM and 213 nM and the GI50 (LOX IMVI melanoma) was 32 nM and 23.9 nM and 21.9 nM. The TGI (LOX IMVI melanoma) was 235 nM and 157 nM and 163 nM, the GI50 (KM12 colon) was 39.6 nM and 41 nM and the TGI (KM12 colon) was 423 nM and 212 nM. For the same compound, the GI50 (HL-60(TB) leukemia) was 5.95 nM and < 10 nM, the TGI (HL-60(TB) leukemia) was 14.5 nM and 11.8 nM and the GI50 (HOP-62 NSCLC) was 40.6 nM and 23.8 nM and 34.4 nM. For the same compound, the TGI (HOP-62 NSCLC) was 145 nM and 91.6 nM and 125 nM, the GI50 (UACC-62 melanoma) was 25.3 nM and 28.6 nM and 14.8 nM and the TGI (UACC-62 melanoma) was 133 nM and 155 nM and 142 nM. The GI50 (SF-539 CNS) was 39.9 nM and 34.8 nM and 35.8 nM, the TGI (SF-539 CNS) was 264 nM and 168 nM and 173 nM and the GI50 (RXF 393 renal) was 37.2 nM and 41 nM and 117 nM. The TGI (RXF 393 renal) was 211 nM and 114 nM and 274 nM, the GI50 (A498 renal) was 38.2 nM and 30.6 nM and 50.9 nM and the TGI (A498 renal) was 472 nM and 184 nM and 244 nM. The GI50 (OVCAR-3 ovarian) was 73.4 nM and 116 nM, the TGI (OVCAR-3 ovarian) was 539 nM and 821 nM and the GI50 (CAKI-1 renal) was 41.9 nM and 25 nM. The TGI (CAKI-1 renal) was 504 nM and 160 nM.
